Source: ChEMBL document CHEMBL2157872, “Trimeric purine nucleoside phosphorylase: exploring postulated one-third-of-the-sites binding in the transition state” (Bioorg Med Chem, 2012)

Legend:
[1] = target: T1, Purine nucleoside phosphorylase (Bos taurus) (UniProt P55859)
T1 sequence (whole entry): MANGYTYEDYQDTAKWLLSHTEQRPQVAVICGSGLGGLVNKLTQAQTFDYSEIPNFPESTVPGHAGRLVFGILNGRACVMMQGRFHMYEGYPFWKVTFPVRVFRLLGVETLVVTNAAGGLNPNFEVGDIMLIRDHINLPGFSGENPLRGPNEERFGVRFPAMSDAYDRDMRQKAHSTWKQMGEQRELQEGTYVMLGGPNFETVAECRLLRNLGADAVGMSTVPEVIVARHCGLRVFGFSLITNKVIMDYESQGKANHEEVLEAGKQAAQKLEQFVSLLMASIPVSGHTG
Description: Inhibition of bovine PNP using 7-methylguanosine as substrate by spectrophotometric based coupled assay

[2] = target: T2, Purine nucleoside phosphorylase (Bos taurus, UniProt P55859)
T2 sequence (P55859 whole entry): T1 sequence (whole entry)

[3] = target: T2, Purine nucleoside phosphorylase; assay: Binding affinity to calf recombinant PNP expressed in Escherichia coli BL21 (DE3) by fluorimetric titration analysis
[4] = target: T3, Purine nucleoside phosphorylase (Bos taurus, UniProt P55859, F200W); assay: Binding affinity to calf recombinant PNP Phe200Trp mutant expressed in Escherichia coli BL21 (DE3) by competitive binding fluorimetric analysis in presence of DFPP-DG
T3 sequence (P55859 whole entry F200W): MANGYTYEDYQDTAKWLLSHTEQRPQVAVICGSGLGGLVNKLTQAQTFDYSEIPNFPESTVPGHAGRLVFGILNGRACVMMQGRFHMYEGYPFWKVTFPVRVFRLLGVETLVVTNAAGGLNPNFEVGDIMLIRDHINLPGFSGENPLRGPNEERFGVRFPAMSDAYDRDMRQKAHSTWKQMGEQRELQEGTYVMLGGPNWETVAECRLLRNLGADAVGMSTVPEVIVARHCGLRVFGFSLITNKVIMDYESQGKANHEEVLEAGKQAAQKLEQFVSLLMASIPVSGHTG

[5] = target: T3, Purine nucleoside phosphorylase
Description: Binding affinity to calf recombinant PNP Phe200Trp mutant expressed in Escherichia coli BL21 (DE3) by fluorimetric titration analysis

[6] = target: Purine nucleoside phosphorylase (Bos taurus, UniProt P55859, F159W); assay: Binding affinity to calf recombinant PNP Phe159Trp mutant expressed in Escherichia coli BL21 (DE3) by fluorimetric titration analysis
Sequence of Purine nucleoside phosphorylase (Bos taurus, UniProt P55859, F159W) (P55859 whole entry F159W): as the sequence (P55859 whole entry F200W) above, with F159W, W200F counted along it

[7] = target: T2, Purine nucleoside phosphorylase; assay: Binding affinity to calf recombinant PNP expressed in Escherichia coli BL21 (DE3) by isothermal titration calorimetry/ fluorimetric titration analysis

| Structure (SMILES) | Kieq [1] [µM] | Kd [2] [nM] | further results |
| --- | --- | --- | --- |
| O=c1[nH]cnc2c([C@@H]3N[C@H](CO)[C@@H](O)[C@H]3O)c[nH]c12 [FORODESINE] | – | 0.023 | – |
| Nc1nc2cc[nH]c2c(=O)[nH]1 | 7.4 | 160 | Kd [3]: 170 nM |
| O=c1[nH]cnc2nc[nH]c12 | 2.5 | – | – |

Continued, in another order:

| Kieq [1] [µM] | Kd [2] [nM] | Structure (SMILES) | further results |
| --- | --- | --- | --- |
| 4 | – | Nc1nc2[nH]cnc2c(=O)[nH]1 | – |
| 6 | – | C[C@@H](Cn1cnc2c(N)nc(N)nc21)OCP(=O)(O)O | Kd [4]: 860 nM |
| – | 120 | Nc1nc2nc[nH]c2c(=O)[nH]1 [GUANINE] | Kd [5]: 160 nM; Kd [6]: 3300 nM; Kd [3]: 160 nM |
| 0.0068 | – | Nc1nc2c(CNCCC(F)(F)P(=O)(O)O)c[nH]c2c(=O)[nH]1 | Kd [7]: 3.6 nM |
